Experimental data as given in publication PMC5218480 (PLoS ONE, 2017).

System: MV-4-11 cells
Assay: Gene expression microarray analysis (Affymetrix PrimeView) and GSEA
Assay type: cell-based, human
Design: RFU PODN (11730768_x_at) / Fold change /veh PODN (11730768_x_at) / RFU LINC00158 (11744669_a_at) / Fold change /veh LINC00158 (11744669_a_at) / RFU DUSP10 (11751237_a_at) / Fold change /veh DUSP10 (11751237_a_at) / RFU ID3 (11757404_x_at) / Fold change /veh ID3 (11757404_x_at) / RFU PLEKHG5 (11737974_s_at) / Fold change /veh PLEKHG5 (11737974_s_at) / RFU LRRC4B (11730491_at) / Fold change /veh LRRC4B (11730491_at) / RFU GIMAP4 (11747438_a_at) / Fold change /veh GIMAP4 (11747438_a_at) / RFU KRT8 (11758183_x_at) / Fold change /veh KRT8 (11758183_x_at) / RFU CNN1 (11734310_a_at) / Fold change /veh CNN1 (11734310_a_at) / RFU VPS37D (11726825_at) / Fold change /veh VPS37D (11726825_at) / RFU C10orf10 (11716522_x_at) / Fold change /veh C10orf10 (11716522_x_at) / RFU KIR2DL2 /// KIR2DL4 /// KIR2DL5A /// KIR2DL5B /// KIR2DS1 /// KIR2DS2 /// KIR2DS3 /// KIR2DS4 /// KIR3DL3 /// KIR3DL3 /// KIR3DS1 (11738374_at) / Fold change /veh KIR2DL2 /// KIR2DL4 /// KIR2DL5A /// KIR2DL5B /// KIR2DS1 /// KIR2DS2 /// KIR2DS3 /// KIR2DS4 /// KIR3DL3 /// KIR3DL3 /// KIR3DS1 (11738374_at) / RFU C1QL1 (11718748_at) / Fold change /veh C1QL1 (11718748_at) / RFU TMPRSS4 (11747572_a_at) / Fold change /veh TMPRSS4 (11747572_a_at) / RFU HAMP (11756126_x_at) / Fold change /veh HAMP (11756126_x_at) / RFU RNFT2 (11725882_a_at) / Fold change /veh RNFT2 (11725882_a_at) / RFU NR4A2 (11747474_a_at) / Fold change /veh NR4A2 (11747474_a_at) / RFU ABCC12 (11746883_a_at) / Fold change /veh ABCC12 (11746883_a_at) / RFU TMEM136 (11760407_x_at) / Fold change /veh TMEM136 (11760407_x_at) / RFU CLDN22 /// WWC2 (11732394_at) / Fold change /veh CLDN22 /// WWC2 (11732394_at) / RFU HLA-DPB1 (11760878_x_at) / Fold change /veh HLA-DPB1 (11760878_x_at) / RFU SPINT1 (11716480_a_at) / Fold change /veh SPINT1 (11716480_a_at) / RFU GAP43 (11754022_s_at) / Fold change /veh GAP43 (11754022_s_at) / RFU A4GNT (11735810_at) / Fold change /veh A4GNT (11735810_at) / RFU PRB3 (11715151_x_at) / Fold change /veh PRB3 (11715151_x_at) / RFU TUBB4B (11761932_at) / Fold change /veh TUBB4B (11761932_at) / RFU CAPN14 (11732068_a_at) / Fold change /veh CAPN14 (11732068_a_at) / RFU TMCC2 (11721928_a_at) / Fold change /veh TMCC2 (11721928_a_at) / RFU IRGQ (11745062_a_at) / Fold change /veh IRGQ (11745062_a_at) / RFU FAM174B (11720279_a_at) / Fold change /veh FAM174B (11720279_a_at) / RFU TMPRSS4 (11748680_a_at) / Fold change /veh TMPRSS4 (11748680_a_at) / RFU FAM212B (11763350_a_at) / Fold change /veh FAM212B (11763350_a_at) / RFU PLEKHG5 (11743358_a_at) / Fold change /veh PLEKHG5 (11743358_a_at) / RFU ZSCAN30 (11745921_a_at) / Fold change /veh ZSCAN30 (11745921_a_at) / RFU CMKLR1 (11741424_a_at) / Fold change /veh CMKLR1 (11741424_a_at) / RFU LOC101060620 /// MAPK8IP1 (11723275_at) / Fold change /veh LOC101060620 /// MAPK8IP1 (11723275_at) / RFU SPTSSB (11747773_x_at) / Fold change /veh SPTSSB (11747773_x_at) / RFU PRSS12 (11739890_at) / Fold change /veh PRSS12 (11739890_at) / RFU BIN1 (11741810_x_at) / Fold change /veh BIN1 (11741810_x_at) / RFU WNT11 (11732464_a_at) / Fold change /veh WNT11 (11732464_a_at) / RFU C10orf10 (11716521_a_at) / Fold change /veh C10orf10 (11716521_a_at) / RFU C5orf56 (11738089_at) / Fold change /veh C5orf56 (11738089_at) / RFU CYB561 (11721691_x_at) / Fold change /veh CYB561 (11721691_x_at) / RFU ANKRD19P (11752326_a_at) / Fold change /veh ANKRD19P (11752326_a_at) / RFU OR2T12 /// OR2T33 /// OR2T8 (11738714_s_at) / Fold change /veh OR2T12 /// OR2T33 /// OR2T8 (11738714_s_at) / RFU VCAN (11748164_a_at) / Fold change /veh VCAN (11748164_a_at) / RFU JSRP1 (11732532_at) / Fold change /veh JSRP1 (11732532_at) / RFU KRTAP10-11 (11738290_x_at) / Fold change /veh KRTAP10-11 (11738290_x_at) / RFU MYO3A (11730013_a_at) / Fold change /veh MYO3A (11730013_a_at) / RFU EBF3 (11725865_a_at) / Fold change /veh EBF3 (11725865_a_at) / RFU CAMK2N1 (11719241_x_at) / Fold change /veh CAMK2N1 (11719241_x_at) / RFU C5orf56 (11738088_a_at) / Fold change /veh C5orf56 (11738088_a_at) / RFU OLFML3 (11715873_a_at) / Fold change /veh OLFML3 (11715873_a_at) / RFU LOC100653217 /// NTM (11731650_a_at) / Fold change /veh LOC100653217 /// NTM (11731650_a_at) / RFU MAPK11 (11762145_a_at) / Fold change /veh MAPK11 (11762145_a_at) / RFU FIZ1 (11724087_x_at) / Fold change /veh FIZ1 (11724087_x_at) / RFU OASL (11726364_x_at) / Fold change /veh OASL (11726364_x_at) / RFU SOX15 (11748057_x_at) / Fold change /veh SOX15 (11748057_x_at) / RFU CD79A (11719716_a_at) / Fold change /veh CD79A (11719716_a_at) / RFU HIST1H1D (11736915_at) / Fold change /veh HIST1H1D (11736915_at) / RFU CASKIN2 (11723855_a_at) / Fold change /veh CASKIN2 (11723855_a_at) / RFU LOC730098 (11760151_x_at) / Fold change /veh LOC730098 (11760151_x_at) / RFU OR4N2 (11742367_at) / Fold change /veh OR4N2 (11742367_at) / RFU PRRT2 (11749266_a_at) / Fold change /veh PRRT2 (11749266_a_at) / RFU SNX32 (11753110_a_at) / Fold change /veh SNX32 (11753110_a_at) / RFU CDHR5 (11726645_a_at) / Fold change /veh CDHR5 (11726645_a_at) / RFU RCAN1 (11760418_a_at) / Fold change /veh RCAN1 (11760418_a_at) / RFU FAM167A (11723789_a_at) / Fold change /veh FAM167A (11723789_a_at) / RFU FAM26E (11764081_at) / Fold change /veh FAM26E (11764081_at) / RFU ISYNA1 (11749810_s_at) / Fold change /veh ISYNA1 (11749810_s_at) / RFU ACY1 (11761880_at) / Fold change /veh ACY1 (11761880_at) / RFU 11764098_at / Fold change /veh 11764098_at / RFU SAMD14 (11745864_x_at) / Fold change /veh SAMD14 (11745864_x_at) / RFU NPB (11741838_a_at) / Fold change /veh NPB (11741838_a_at) / RFU TMPRSS6 (11731388_a_at) / Fold change /veh TMPRSS6 (11731388_a_at) / RFU KRTAP10-2 (11738614_at) / Fold change /veh KRTAP10-2 (11738614_at) / RFU ARHGAP8 /// PRR5-ARHGAP8 (11727945_x_at) / Fold change /veh ARHGAP8 /// PRR5-ARHGAP8 (11727945_x_at) / RFU KRTAP5-7 /// NADSYN1 (11734609_at) / Fold change /veh KRTAP5-7 /// NADSYN1 (11734609_at) / RFU RASL12 (11751679_a_at) / Fold change /veh RASL12 (11751679_a_at) / RFU CDKN2B (11736163_a_at) / Fold change /veh CDKN2B (11736163_a_at) / RFU PRF1 (11729649_at) / Fold change /veh PRF1 (11729649_at) / RFU, ZNF638 /// ZNF638-IT1 / Fold change vs veh, ZNF638 /// ZNF638-IT1 / RFU, PANK3 / Fold change vs veh, PANK3 / RFU, SH3YL1 / Fold change vs veh, SH3YL1 / RFU, ZEB2 / Fold change vs veh, ZEB2 / RFU, NRIP1 / Fold change vs veh, NRIP1 / RFU, PTTG1IP / Fold change vs veh, PTTG1IP / RFU, CAPN2 / Fold change vs veh, CAPN2 / RFU, MED14 / Fold change vs veh, MED14 / RFU, SNORA58 / Fold change vs veh, SNORA58 / RFU, C1orf63 / Fold change vs veh, C1orf63 / RFU, LRRFIP1 / Fold change vs veh, LRRFIP1 / RFU, NDUFAF7 / Fold change vs veh, NDUFAF7 / RFU, SLC12A2 / Fold change vs veh, SLC12A2 / RFU, IBTK / Fold change vs veh, IBTK / RFU, ESF1 / Fold change vs veh, ESF1 / Fold change vs veh, TMEM50B / RFU, TAOK1 / Fold change vs veh, TAOK1 / RFU, ACBD3 / Fold change vs veh, ACBD3 / RFU, TMA16 / Fold change vs veh, TMA16 / RFU, RWDD3 / Fold change vs veh, RWDD3 / RFU, BCAT1 / Fold change vs veh, BCAT1 / RFU, EDEM3 / Fold change vs veh, EDEM3 / RFU, TMEM33 / Fold change vs veh, TMEM33 / RFU, WDR75 / Fold change vs veh, WDR75 / RFU, AHCTF1 / Fold change vs veh, AHCTF1 / RFU, TFRC / Fold change vs veh, TFRC / RFU, ZDHHC17 / Fold change vs veh, ZDHHC17 / RFU, NOM1 / Fold change vs veh, NOM1 / RFU, ARL8B / Fold change vs veh, ARL8B / RFU, ZBTB11 / Fold change vs veh, ZBTB11 / RFU, TAMM41 / Fold change vs veh, TAMM41 / RFU, KIAA1704 /// LOC100996395 / Fold change vs veh, KIAA1704 /// LOC100996395 / RFU, ING1 / Fold change vs veh, ING1 / RFU, TRMT61B / Fold change vs veh, TRMT61B / RFU, FUBP3 / Fold change vs veh, FUBP3 / RFU, TP53 / Fold change vs veh, TP53 / RFU, TNKS2 / Fold change vs veh, TNKS2 / RFU, ZFP14 / Fold change vs veh, ZFP14 / RFU, ACTR2 / Fold change vs veh, ACTR2 / RFU, PPP3R1 / Fold change vs veh, PPP3R1 / RFU, PIK3R1 / Fold change vs veh, PIK3R1 / RFU, HNRNPA1 / Fold change vs veh, HNRNPA1 / RFU, RNF170 / Fold change vs veh, RNF170 / RFU, ZNF28 / Fold change vs veh, ZNF28 / RFU, RNGTT / Fold change vs veh, RNGTT / RFU, OGT / Fold change vs veh, OGT / RFU, BRD1 / Fold change vs veh, BRD1 / RFU, MARS / Fold change vs veh, MARS / RFU, ZNF655 / Fold change vs veh, ZNF655 / RFU, FAHD1 / Fold change vs veh, FAHD1 / RFU, BDP1 / Fold change vs veh, BDP1 / RFU, LRRCC1 / Fold change vs veh, LRRCC1 / RFU, ARID1A / Fold change vs veh, ARID1A / RFU, ZNF146 / Fold change vs veh, ZNF146 / RFU, ZNF330 / Fold change vs veh, ZNF330 / RFU, GPN3 / Fold change vs veh, GPN3 / RFU, C9orf123 / Fold change vs veh, C9orf123 / RFU, N4BP2L2 / Fold change vs veh, N4BP2L2 / RFU, ARFIP1 / Fold change vs veh, ARFIP1 / RFU, FAM179B / Fold change vs veh, FAM179B / RFU, BCL10 / Fold change vs veh, BCL10 / RFU, UHRF1BP1L / Fold change vs veh, UHRF1BP1L / RFU, BET1 / Fold change vs veh, BET1 / RFU, CNOT2 / Fold change vs veh, CNOT2 / RFU, ZNF268 / Fold change vs veh, ZNF268 / Fold change vs veh, ZNF507 / RFU, DGCR2 / Fold change vs veh, DGCR2 / RFU, WDSUB1 / Fold change vs veh, WDSUB1 / Fold change vs veh, HSP90B1 /// MIR3652 / RFU, ADSS / Fold change vs veh, ADSS / RFU, GK / Fold change vs veh, GK / RFU, ZNF148 / Fold change vs veh, ZNF148 / RFU, TAF9 / Fold change vs veh, TAF9 / RFU, SLC1A5 / Fold change vs veh, SLC1A5 / RFU, SLMO2 / Fold change vs veh, SLMO2 / RFU, ABCC4 / Fold change vs veh, ABCC4 / RFU, LOC101060439 /// RAP1B / Fold change vs veh, LOC101060439 /// RAP1B / RFU, RFX7 / Fold change vs veh, RFX7 / RFU, GTPBP10 / Fold change vs veh, GTPBP10 / RFU, CNEP1R1 / Fold change vs veh, CNEP1R1 / RFU, BIVM-ERCC5 /// ERCC5 / Fold change vs veh, BIVM-ERCC5 /// ERCC5 / RFU, ILF3 / Fold change vs veh, ILF3 / RFU 11762660_at / Fold change /veh 11762660_at / RFU VCAN (11757783_s_at) / Fold change /veh VCAN (11757783_s_at) / RFU DDX43 (11728927_at) / Fold change /veh DDX43 (11728927_at) / RFU KRT8 (11758188_x_at) / Fold change /veh KRT8 (11758188_x_at) / RFU NKD1 (11759106_at) / Fold change /veh NKD1 (11759106_at) / RFU SRD5A1 (11742802_a_at) / Fold change /veh SRD5A1 (11742802_a_at) / RFU TPSAB1 /// TPSB2 (11721975_s_at) / Fold change /veh TPSAB1 /// TPSB2 (11721975_s_at) / RFU GSTM3 (11746129_a_at) / Fold change /veh GSTM3 (11746129_a_at) / RFU IL23R (11737362_x_at) / Fold change /veh IL23R (11737362_x_at) / RFU TMEM51 (11727254_a_at) / Fold change /veh TMEM51 (11727254_a_at) / RFU PIWIL2 (11732686_x_at) / Fold change /veh PIWIL2 (11732686_x_at) / RFU ORM1 (11744905_x_at) / Fold change /veh ORM1 (11744905_x_at) / RFU CCDC152 (11743942_at) / Fold change /veh CCDC152 (11743942_at) / RFU ECM1 (11717891_a_at) / Fold change /veh ECM1 (11717891_a_at) / RFU IL23R (11748794_a_at) / Fold change /veh IL23R (11748794_a_at) / RFU TNFAIP8L3 (11732012_x_at) / Fold change /veh TNFAIP8L3 (11732012_x_at) / RFU MBOAT4 (11741988_at) / Fold change /veh MBOAT4 (11741988_at) / RFU 11764193_at / Fold change /veh 11764193_at / RFU TMEM53 (11763286_at) / Fold change /veh TMEM53 (11763286_at) / RFU MAGEB2 (11727129_at) / Fold change /veh MAGEB2 (11727129_at) / RFU TMEM200A (11744735_a_at) / Fold change /veh TMEM200A (11744735_a_at) / RFU CCDC152 (11751479_a_at) / Fold change /veh CCDC152 (11751479_a_at) / RFU FAM211A (11726209_a_at) / Fold change /veh FAM211A (11726209_a_at) / RFU RGS16 (11746705_a_at) / Fold change /veh RGS16 (11746705_a_at) / RFU VCAN (11755009_s_at) / Fold change /veh VCAN (11755009_s_at) / RFU RHOB (11743442_s_at) / Fold change /veh RHOB (11743442_s_at) / RFU RGS16 (11720943_a_at) / Fold change /veh RGS16 (11720943_a_at) / RFU RGS16 (11720944_at) / Fold change /veh RGS16 (11720944_at) / RFU, VPS4B / Fold change vs veh, VPS4B / RFU, CREB1 / Fold change vs veh, CREB1 / RFU, DNAJC13 / Fold change vs veh, DNAJC13 / RFU, GNAQ / Fold change vs veh, GNAQ / RFU, CDK5R1 / Fold change vs veh, CDK5R1 / RFU, ZRANB3 / Fold change vs veh, ZRANB3 / RFU, CUL4A / Fold change vs veh, CUL4A / RFU, CCNY / Fold change vs veh, CCNY / RFU, UFL1 / Fold change vs veh, UFL1 / RFU, COG3 / Fold change vs veh, COG3 / RFU, DIAPH2 / Fold change vs veh, DIAPH2 / RFU, SKA2 / Fold change vs veh, SKA2 / RFU, AFF3 / Fold change vs veh, AFF3 / RFU, LMF1 / Fold change vs veh, LMF1 / RFU, IPO11 / Fold change vs veh, IPO11 / RFU, DFFB / Fold change vs veh, DFFB / RFU, FOXP1 / Fold change vs veh, FOXP1 / RFU, CARD8 / Fold change vs veh, CARD8 / RFU, STRN3 / Fold change vs veh, STRN3 / RFU, ADK / Fold change vs veh, ADK / RFU, RASSF2 / Fold change vs veh, RASSF2 / RFU, WIPF1 / Fold change vs veh, WIPF1 / RFU, LARP1B / Fold change vs veh, LARP1B / RFU, RASA1 / Fold change vs veh, RASA1 / RFU, RB1 / Fold change vs veh, RB1 / RFU, PPFIA1 / Fold change vs veh, PPFIA1 / RFU, MAT2A / Fold change vs veh, MAT2A / RFU, CCT5 / Fold change vs veh, CCT5 / RFU, WDR92 / Fold change vs veh, WDR92 / RFU, CUX1 / Fold change vs veh, CUX1 / RFU, TTC7A / Fold change vs veh, TTC7A / RFU, TMEM135 / Fold change vs veh, TMEM135 / RFU, DEPTOR / Fold change vs veh, DEPTOR / RFU, CPM / Fold change vs veh, CPM / RFU, DNAJB6 / Fold change vs veh, DNAJB6 / RFU, CACNA2D3 / Fold change vs veh, CACNA2D3 / RFU, DTX4 / Fold change vs veh, DTX4 / RFU, TFCP2 / Fold change vs veh, TFCP2 / RFU, GMCL1 /// GMCL1P1 / Fold change vs veh, GMCL1 /// GMCL1P1 / RFU, AEBP2 / Fold change vs veh, AEBP2 / RFU, SNHG1 /// SNORD22 /// SNORD25 /// SNORD26 /// SNORD27 /// SNORD28 /// SNORD29 /// SNORD31 / Fold change vs veh, SNHG1 /// SNORD22 /// SNORD25 /// SNORD26 /// SNORD27 /// SNORD28 /// SNORD29 /// SNORD31 / Fold change (Aza/veh), C12orf56 (ProbeSet 11735607_a_at) / Fold change (ACY-1035/veh), C12orf56 (ProbeSet 11735607_a_at) / Fold change (Aza/veh), FGFR1OP (ProbeSet 11751329_s_at) / Fold change (ACY-1035/veh), FGFR1OP (ProbeSet 11751329_s_at) / Fold change (Aza/veh), VPS36 (ProbeSet 11739960_a_at) / Fold change (ACY-1035/veh), VPS36 (ProbeSet 11739960_a_at) / RFU SYPL1 (11715823_x_at) / Fold change /veh SYPL1 (11715823_x_at) / RFU IGFBP7 (11715501_s_at) / Fold change /veh IGFBP7 (11715501_s_at) / RFU REEP3 (11722064_at) / Fold change /veh REEP3 (11722064_at) / RFU IGLL1 (11728026_x_at) / Fold change /veh IGLL1 (11728026_x_at): dose or concentration left out as unconfirmed
Details: MV-4-11 cells, 48 hours

## Nc1ncn([C@@H]2O[C@H](CO)[C@@H](O)[C@H]2O)c(=O)n1 [azacitidine]
  RFU CCDC152 (11743942_at): 8.41 RFU
